Reference: PubChem BioAssay AID2060601 (Molecular Pharmacology Branch, DTP, NCI, 2025)

Tested on: 874868-142-R-J2-PDC complex spheroids, growth % test/control
Assay: Anticancer human tumor 874868-142-R-J2-PDC patient-derived head and neck squamous carcinoma cell line growth inhibition [CLK]
Conditions: for IC50: curve of first compound; for viability, T/C: stronger effect = lower value; active = viability on the fitted dose curve at most 10% of control; inactive = the rest
Excerpt: A high-throughput screen of multi-cell type tumor spheroids was designed to identify active combinations of […] and targeted small molecules. Complex spheroids include a stromal component modeled by human endothelial cells (HUVEC) and fibroblasts modeled by human mesenchymal stem cells (MSCs). The concentration ranges selected for each drug and investigational agent were based upon clinically achievable concentrations if the clinical Cmax of the agent was known.
Compounds. The drugs and investigational agents: cirtuvivint (SM08502; NSC835563), CC-671 (NSC850746), vemurafenib (NSC761431), tapotoclax (NSC804041), sotorasib (NSC818433), adagrasib (NSC831453), MRTX-1133 (NSC836407), BAY2416964 (NSC825713), copanlisib (NSC816437), inavolisib (NSC800729), abemaciclib (NSC768073), osimertinib (NSC779217), entinostat (NSC756642), eltanexor (KPT-8602, NSC794443), venetoclax (NSC766270), ceralasertib (NSC777638), bortezomib (NSC756655), olaparib (NSC753686), talazoparib (NSC767125), alisertib (NSC759677), peposertib (NSC802822), gemcitabine (NSC613327), 5-fluorouracil (NSC19893), SN-38 (NSC673596), oxaliplatin (NSC266046), paclitaxel (NSC125973), and doxorubicin (NSC123127), were obtained from the National Cancer Institute (NCI) Developmental Therapeutics Program Chemical Repository. The FDA-approved anticancer drug set is available from the Developmental Therapeutics Program at https://dtp.cancer.gov/organization/dscb/obtaining/available plates.htm. […] The stock solutions were prepared in dimethyl sulfoxide (DMSO, Sigma-Aldrich, St. Louis, MO, cat. D2650), except for the platinum complexes which were prepared in saline (Quality Biological, Gaithersburg, MD, cat. 114-055-101), at 800-fold the tested concentration and stored at -70 degrees C prior to their use. All drugs and investigational agents were tested over a range starting from a high concentration at or near the clinical Cmax and decreasing in half-log increments. If the clinical Cmax for an agent had not been determined, the highest concentration tested was 10 microM.
Cell Culture. All cells were maintained in an incubator at 37 degrees C and 5% CO2 with 95% humidity. The PDC lines were cultured according to standard operating procedures established by the NCI PDMR. Briefly, all PDCs were thawed and cultured in Matrigel-coated flasks prepared with a working solution of 1X Ham's F-12 nutrient mix, without supplementation (Invitrogen, Waltham, MA, cat. 11765054), 100 U/mL penicillin-streptomycin (Invitrogen, cat. 15140122), and 2.5% Matrigel (Corning Inc., Corning, NY, cat. 354248) for the first three passages. The 947758-054-R-J2-PDC line was cultured in 6B/Colon 1A media, which includes advanced DMEM/F-12 (Thermo Fisher Scientific, cat. 12634028), 10 mM HEPES (Thermo Fisher Scientific, cat. 15630080), 1X GlutaMAX supplement (Thermo Fisher Scientific, cat. 35050061), 0.1 mg/mL primocin (InvivoGen, cat. ant-pm-2), 10% defined fetal bovine serum, heat inactivated (HyClone Laboratories Inc., cat. SH30070.03HI), 1.25 mM N-Acetyl-L-cysteine (Sigma-Aldrich, cat. A9165), 10 mM nicotinamide (Sigma-Aldrich, cat. N0636), 1X B-27 supplement (Thermo Fisher Scientific, cat. 17504044), 1X N-2 supplement (Thermo Fisher Scientific, cat. 17502048), and 10 microM Y-27632 dihydrochloride (Tocris Bioscience, cat. 1254). The 876862-298-R-J1-PDC was cultured in 6E media, which includes all 6B/Colon 1A media components plus 50% L-WRN conditioned media (ATCC, cat. CRL-3276), 50 ng/mL recombinant human EGF recombinant protein (hEGF; Thermo Fisher Scientific, cat. PHG0311), 10 ng/mL recombinant human fibroblast growth factor 10 (hGFG-10; PeproTech, cat. 100-26), 1 ng/mL recombinant human fibroblast growth factor 2 (hFGF-2; PeproTech, cat. 100-18B), and 1 µM prostaglandin E2 (PGE2; Tocris, cat. 2296). The 227483-062-R1-J1-PDC line was cultured in Panc media, containing all 6E components except hFGF-2, with the addition of 500 nM SB-431542 (Selleckchem, cat. S1067) and 10 nM gastrin (Tocris, cat. 3006). […]
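Also: spheroids exposed to the compounds for 7 days.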

COC1C=CCC(C)C(C)S(=O)(=O)NC(=O)c2ccc3c(c2)N(CC2CCC21)CC1(CCCc2cc(Cl)ccc21)CO3 (configuration not stated) + CN1CCN(c2cc(C(=O)Nc3cc4cc(-c5cnn(C)c5)ccc4cn3)ccn2)CC1
active: viability, T/C (second compound 0.1 µM, first compound 10 µM) 8.09% | viability, T/C (second compound 0.316 µM, first compound 1 µM) 6.03% | viability, T/C (second compound 0.316 µM, first compound 3.16 µM) 6.07% | viability, T/C (second compound 0.316 µM, first compound 10 µM) 5.99% | viability, T/C (second compound 1 µM, first compound 0.0316 µM) 0.48% | viability, T/C (second compound 1 µM, first compound 0.1 µM) 0.33% | viability, T/C (second compound 1 µM, first compound 0.316 µM) 1.14% | viability, T/C (second compound 1 µM, first compound 1 µM) 0.2% | viability, T/C (second compound 1 µM, first compound 3.16 µM) 2.7% | viability, T/C (second compound 1 µM, first compound 10 µM) 1.73% | viability, T/C (second compound 3.16 µM, first compound 0.0316 µM) 0.85% | viability, T/C (second compound 3.16 µM, first compound 0.1 µM) 0.74% | viability, T/C (second compound 3.16 µM, first compound 0.316 µM) 0.27% | viability, T/C (second compound 3.16 µM, first compound 1 µM) 0.44% | viability, T/C (second compound 3.16 µM, first compound 3.16 µM) 0.33% | viability, T/C (second compound 3.16 µM, first compound 10 µM) 1.12% | viability, T/C (second compound 10 µM, first compound 0.0316 µM) 0.79% | viability, T/C (second compound 10 µM, first compound 0.1 µM) 0.24% | viability, T/C (second compound 10 µM, first compound 0.316 µM) 0.61% | viability, T/C (second compound 10 µM, first compound 1 µM) 0.22% | viability, T/C (second compound 10 µM, first compound 3.16 µM) 1.51% | viability, T/C (second compound 10 µM, first compound 10 µM) 0.24%
1390 nM: IC50 (second compound 0.0316 µM)
< 31.6 nM: IC50 (second compound 0.316 µM) | IC50 (second compound 1 µM) | IC50 (second compound 3.16 µM) | IC50 (second compound 10 µM)
inactive: viability, T/C (second compound 0.0316 µM, first compound 0.0316 µM) 101% | viability, T/C (second compound 0.0316 µM, first compound 0.1 µM) 93.2% | viability, T/C (second compound 0.0316 µM, first compound 0.316 µM) 66.2% | viability, T/C (second compound 0.0316 µM, first compound 1 µM) 60.8% | viability, T/C (second compound 0.0316 µM, first compound 3.16 µM) 34.7% | viability, T/C (second compound 0.0316 µM, first compound 10 µM) 18.2% | viability, T/C (second compound 0.1 µM, first compound 0.0316 µM) 77.1% | viability, T/C (second compound 0.1 µM, first compound 0.1 µM) 74.3% | viability, T/C (second compound 0.1 µM, first compound 0.316 µM) 65.2% | viability, T/C (second compound 0.1 µM, first compound 1 µM) 56.1% | viability, T/C (second compound 0.1 µM, first compound 3.16 µM) 15.2% | viability, T/C (second compound 0.316 µM, first compound 0.0316 µM) 21.6% | viability, T/C (second compound 0.316 µM, first compound 0.1 µM) 14.9% | viability, T/C (second compound 0.316 µM, first compound 0.316 µM) 11.8%
1150 nM: IC50 (second compound 0.1 µM)
